# Results from patent US5348975A, “7-chromanyl esters of phenols and benzoic acids having retinoid-like activity” (Allergan, Inc., priority 1993, dated 1994).
# Columns and labels:
# [1] = test system: ornithine decarboxylase (ODC); assay: inhibition of TPA-induced ornithine decarboxylase (ODC) activity (retinoic acid-like activity; essentially method of Verma & Boutwell); type: in vivo
# Description: The retionic acid like activity of these compounds was confirmed through the classic measure of retionic acid activity involving the effects of retionic acid on ornithine decarboxylase. The original work on the correlation between retinoic acid and decrease in cell proliferation was done by Verma & Boutwell, Cancer Research, 1977, 37, 2196-2201. That reference discloses that ornithine decarboxylase (ODC) activity increased precedent to polyamine biosynthesis. It has been established elsewhere that increases in polyamine synthesis can be correlated or associated with cellular proliferation. Thus, if ODC activity could be inhibited, cell hyperproliferation could be modulated.
# By way of example of retinoic acid-like activity it is noted that in the assay conducted essentially in accordance with the method of Verma & Boutwell, ibid, the following examples of the preferred compounds of the present invention (Compounds 1, 2 and 3) elicited the following percent inhibition of TPA-induced ODC activity at the given calculations: […]
# [2] = test system: ornithine decarboxylase (ODC); settings: literature background, cited from earlier work
smiles,measurement,setting,value
"CCOC(=O)c1ccc(OC(=O)c2ccc3c(c2)OC(C)(C)CC3(C)C)cc1 [Compound 1, Ethyl 4-(2,2,4,4-tetramethyl-7-chromanoyloxy) benzoate]",% inhibition of TPA-induced ODC activity,[1]; Dose 30 nmol,100%
"CC1(C)CC(C)(C)c2ccc(C(=O)Oc3ccc(C(=O)OCc4ccccc4)cc3)cc2O1 [Compound 2, Benzyl 4-(2,2,4,4,tetramethyl-7-chromanoyloxy)benzoate]",% inhibition of TPA-induced ODC activity,[1]; Dose 300 nmol,84%
"CC1(C)CC(C)(C)c2ccc(C(=O)Oc3ccc(C(=O)O)cc3)cc2O1 [Compound 3, 4-(2,2,4,4-tetramethyl-7-chromanoyloxy) benzoic acid]",% inhibition of TPA-induced ODC activity,[1]; Dose 30 nmol,86%
CC1=C(/C=C/C(C)=C/C=C/C(C)=C/C(=O)O)C(C)(C)CCC1 [Retinoic acid],inhibition of TPA induction of ODC activity (in words),[2]; retinoic acid,inhibits this induction of ODC activity by TPA
"CCCCCCCCCCCCCC(=O)O[C@@H]1[C@@H](C)[C@@]2(O)[C@@H](C=C(CO)C[C@]3(O)C(=O)C(C)=C[C@@H]23)[C@@H]2C(C)(C)[C@]12OC(C)=O [TPA, 12-0-tetradecanoyl-phorbol-13-acetate]",induction of ODC activity (in words),[2]; TPA,induces ODC activity
